Test results published in patent publication US4129648A, “Method for reducing endogenous prostaglandin synthesis” (priority 1977, dated 1978).
Where a name gives a salt, the structure may show the parent alone.

How the values were obtained:
[1] = system: transient hypertension induced by sodium arachidonate; assay: Mean arterial blood pressure in the anaesthetized guinea pig challenged with sodium arachidonate; type: in vivo
Description: (§1) The ability of Cohn subfraction IV4 and haptoglobin to reduce the transient hypertension caused by administration of sodium arachidonate in the guinea pig was also measured. These tests were carried out as follows.
(§2) Male albino guinea pigs weighing 400-600 g each (Dunkin Hartley strain) were anesthetized by administration of sodium pentobarbitone, 60 mg/kg intraperitoneally. The trachea was cannulated for artificial ventilation by a Starling pump (5-8 ml at 72 strokes per minute) via a Fleisch 0000 pneumatachograph. The difference in pressure across this device was measured with a Grass differential pressure transducer. […] Transpulmonary pressure (TPP) was measured with another differential pressure transducer via side arms to the thoracic cavity and the tracheal cannula. The signals for low and TPP were applied to the analogue computer so that there was approximately 180° phase difference. The computer derived the dynamic compliance and resistance from the in-going signals. Drugs were administered intravenously via the external jugular vein. A 1 mg/ml solution of sodium arachidonate was prepared as follows. […] These doses were given at 30 minute intervals to produce a large but submaximal bronchoconstriction. After 2 or 3 similar responses to the same dose of sodium arachidonate had been obtained, the test substance in saline (0.1 to 1 ml) was injected intravenously. At various times thereafter, a challenge was given.
The left carotid artery was cannulated for recording blood pressure with a Grass pressure transducer (Consolidated Dynamics 0.75 cm Hg type 4L221) linked to a Devices twin channel polygraph via a CD2D pre-amplifier. Electrocardiograms were recorded using a DC6 pre-amplifier linked to the Devices polygraph.

[2] = system: bronchoconstriction induced by sodium arachidonate; assay: Dynamic compliance and airway resistance in the anaesthetized guinea pig challenged with sodium arachidonate; type: in vivo
Description: as §1, §2

[3] = dose 0.03 mg/kg intravenously, challenge 45 sec after treatment
[4] = dose 0.10 mg/kg intravenously, challenge 45 sec after treatment
[5] = dose 25μ/kg intravenously, challenge 30 min after treatment
[6] = dose 25μ/kg intravenously, challenge 60 min after treatment
[7] = dose 25μ/kg intravenously, challenge 90 min after treatment
[8] = dose 25μ/kg intravenously, challenge 120 min after treatment
[9] = dose 25μ/kg intravenously, challenge 150 min after treatment
[10] = dose 50μ/kg intravenously, challenge 30 min after treatment
[11] = dose 50μ/kg intravenously, challenge 60 min after treatment
[12] = dose 50μ/kg intravenously, challenge 90 min after treatment
[13] = dose 50μ/kg intravenously, challenge 120 min after treatment
[14] = dose 50μ/kg intravenously, challenge 150 min after treatment
[15] = dose 50μ/kg intravenously, challenge 180 min after treatment
[16] = dose 50μ/kg intravenously, challenge 210 min after treatment
[17] = dose 50μ/kg intravenously, challenge 240 min after treatment
[18] = dose 5 mg/kg intravenously, challenge 45 sec after treatment
[19] = dose 20 mg/kg intravenously, challenge 45 sec after treatment
[20] = dose 50 mg/kg intravenously, challenge 45 sec after treatment
[21] = dose 100 mg/kg intravenously, challenge 45 sec after treatment

COc1ccc2c(c1)c(CC(=O)O)c(C)n2C(=O)c1ccc(Cl)cc1 [Indomethacin, indomethacin sodium salt]
Mean % Inhibition (± s.e.) of hypertension [1, 3]: 65.0 ± 2.1%
Mean % Inhibition (± s.e.) of educed dynamic lung compliance [2, 3]: 58.7 ± 15.7%
Mean % Inhibition (± s.e.) of increased airway resistance [2, 3]: 47.0 ± 15.8%
Mean % Inhibition (± s.e.) of educed dynamic lung compliance [2, 4]: 85.5 ± 14.5%
Mean % Inhibition (± s.e.) of increased airway resistance [2, 4]: 90.5 ± 9.5%

ACTH: a drenocorticotrophin (ACTH), well known anti-inflammatory agent (SYSMEHFRWGKPVGKKRRPVKVYPNGAEDESAEAFPLEF; Corticotropin; UniProt P01189 138-176, looked up)
Mean % Inhibition (± s.e.) of hypertension [1, 5]: 24.0 ± 10.0%
Mean % Inhibition (± s.e.) of hypertension [1, 6]: 28.5 ± 14.5%
Mean % Inhibition (± s.e.) of hypertension [1, 7]: 49.0 ± 15.0%
Mean % Inhibition (± s.e.) of hypertension [1, 8]: 53.5 ± 3.5%
Mean % Inhibition (± s.e.) of hypertension [1, 9]: 17.0%
Mean % Inhibition (± s.e.) of hypertension [1, 10]: 83.0%
Mean % Inhibition (± s.e.) of hypertension [1, 11]: 67.0%
Mean % Inhibition (± s.e.) of hypertension [1, 12]: 100.0%
Mean % Inhibition (± s.e.) of hypertension [1, 13]: 67.0%
Mean % Inhibition (± s.e.) of hypertension [1, 14]: 100.0%
Mean % Inhibition (± s.e.) of hypertension [1, 15]: 83.0%
Mean % Inhibition (± s.e.) of hypertension [1, 16]: 100.0%
Mean % Inhibition (± s.e.) of hypertension [1, 17]: 100.0%
Mean % Inhibition (± s.e.) of educed dynamic lung compliance [2, 5]: 16.5 ± 16.5%
Mean % Inhibition (± s.e.) of increased airway resistance [2, 5]: 31.5 ± 24.5%
Mean % Inhibition (± s.e.) of educed dynamic lung compliance [2, 6]: 35.5 ± 2.5%
Mean % Inhibition (± s.e.) of increased airway resistance [2, 6]: 55.5 ± 3.5%
Mean % Inhibition (± s.e.) of educed dynamic lung compliance [2, 7]: 62.5 ± 12.5%
Mean % Inhibition (± s.e.) of increased airway resistance [2, 7]: 72.5 ± 12.5%
Mean % Inhibition (± s.e.) of educed dynamic lung compliance [2, 8]: 53.0 ± 3.0%
Mean % Inhibition (± s.e.) of increased airway resistance [2, 8]: 68.5 ± 16.5%
Mean % Inhibition (± s.e.) of educed dynamic lung compliance [2, 9]: 63.0%
Mean % Inhibition (± s.e.) of increased airway resistance [2, 9]: 85.0%
Mean % Inhibition (± s.e.) of increased airway resistance [2, 10]: 52.0%
Mean % Inhibition (± s.e.) of increased airway resistance [2, 11]: 73.0%
Mean % Inhibition (± s.e.) of increased airway resistance [2, 12]: 73.0%
Mean % Inhibition (± s.e.) of increased airway resistance [2, 13]: 91.0%
Mean % Inhibition (± s.e.) of increased airway resistance [2, 14]: 68.0%
Mean % Inhibition (± s.e.) of increased airway resistance [2, 15]: 59.0%
Mean % Inhibition (± s.e.) of increased airway resistance [2, 16]: 66.0%
Mean % Inhibition (± s.e.) of increased airway resistance [2, 17]: 67.0%
Mean % Inhibition (± s.e.) of educed dynamic lung compliance ([2]; intravenously, challenge 30 min after treatment): 67.0%
Mean % Inhibition (± s.e.) of educed dynamic lung compliance ([2]; intravenously, challenge 60 min after treatment): 50.0%
Mean % Inhibition (± s.e.) of educed dynamic lung compliance ([2]; intravenously, challenge 90 min after treatment): 67.0%
Mean % Inhibition (± s.e.) of educed dynamic lung compliance ([2]; intravenously, challenge 120 min after treatment): 75.0%
Mean % Inhibition (± s.e.) of educed dynamic lung compliance ([2]; intravenously, challenge 150 min after treatment): 58.0%
Mean % Inhibition (± s.e.) of educed dynamic lung compliance ([2]; intravenously, challenge 180 min after treatment): 75.0%
Mean % Inhibition (± s.e.) of educed dynamic lung compliance ([2]; intravenously, challenge 210 min after treatment): 75.0%
Mean % Inhibition (± s.e.) of educed dynamic lung compliance ([2]; intravenously, challenge 240 min after treatment): 75.0%

Haptoglobin heated to 60° C 15 min: haptoglobin from Cohn subfraction IV4 by ammonium sulphate purification, partially heat-inactivated
Mean % Inhibition (± s.e.) of hypertension [1, 18]: 7.0 ± 7.0%
Mean % Inhibition (± s.e.) of educed dynamic lung compliance [2, 18]: 6.3 ± 6.3%
Mean % Inhibition (± s.e.) of increased airway resistance [2, 18]: 10.3 ± 5.2%

Haptoglobin: obtained from human plasma Cohn subfraction IV4 by ammonium sulphate purification and DEAE cellulose chromatography
Mean % Inhibition (± s.e.) of hypertension [1, 18]: 34.5 ± 13.9%
Mean % Inhibition (± s.e.) of hypertension [1, 19]: 83.5 ± 16.5%
Mean % Inhibition (± s.e.) of hypertension [1, 20]: 90.0 ± 10.0%
Mean % Inhibition (± s.e.) of hypertension [1, 21]: 73.0%
Mean % Inhibition (± s.e.) of educed dynamic lung compliance [2, 18]: 27.4 ± 5.3%
Mean % Inhibition (± s.e.) of increased airway resistance [2, 18]: 31.8 ± 4.7%
Mean % Inhibition (± s.e.) of educed dynamic lung compliance [2, 19]: 34.3 ± 7.4%
Mean % Inhibition (± s.e.) of increased airway resistance [2, 19]: 44.3 ± 6.7%
Mean % Inhibition (± s.e.) of educed dynamic lung compliance [2, 20]: 49.0 ± 3.2%
Mean % Inhibition (± s.e.) of increased airway resistance [2, 20]: 67.7 ± 0.3%
Mean % Inhibition (± s.e.) of educed dynamic lung compliance [2, 21]: 64.0 ± 0%
Mean % Inhibition (± s.e.) of increased airway resistance [2, 21]: 67.0 ± 8.0%
